# From patent US20200079785A1, “MITOMYCIN C PRODRUG LIPOSOME FORMULATIONS AND USES THEREOF” (MALLINCKRODT LLC, priority 2016, published 2020)
# Read-outs that look alike come from different tables or passages of the source.
# Key:
# [1] = system: HT29 colorectal adenocarcinoma xenografts
# Description: The anti-tumor activity of liposomal MMC prodrugs were evaluated in female Hsd:Athymic Nude-Foxn1^nu/nu mice (approximately 25 g) implanted subcutaneous with HT29 colorectal adenocarcinoma cells or (1×10^6). Once tumors reached a median size of 200 mm^3, animals were randomized into five (5) groups, normalized by tumor volume. Animals without tumors were not included in this study. […]
# According to NCI euthanasia guidelines, mice were removed from the study if they loss 20% of their initial bodyweight or became moribund or if their tumor volume exceeded 2500 mm^3 or if the tumor ulcerated. Tumor volume was measured with the TumorImager system at least twice per week and calculated with the TumorManager software, and mice were weighed twice per week.
# Tumor volume was expressed as mean and median and plotted as a function of time. Animals removed from the study due to excess tumor size beyond 2500 mm^3 had values carried forward as 2500 mm^3 in the median plot only. Groups with less than 50% animals remaining were not carried forward for further tumor analysis. The following parameters were determined from tumor size and survival analysis: tumor growth inhibition (TGI), tumor growth delay (TGD), and median survival. The ratio of treated versus control tumor volume (% T/C) was calculated as: […]
# Statistical significance of observed differences between growth curves were evaluated by One-Way ANOVA followed by posthoc test if significant.
# In another study, mice bearing HT29 colorectal adenocarcinoma xenografts were given a single intravenous dose of liposomal MMC Prodrugs (MP-3854 or MP-3861), free MMC, or saline and the results are summarized FIGS. 7 and 8 and Table 10 below.
# In another study, mice bearing HT29 colorectal adenocarcinoma xenografts were given a single intravenous dose of liposomal MMC Prodrug (W-3854) or saline and the results are summarized FIG. 10 and Table 12 below.
# In a further study, mice bearing HT29 colorectal adenocarcinoma xenografts were given a single intravenous dose of liposomal MMC Prodrug (W-3854) or saline and the results are summarized FIG. 11 and Table 13 below.
# [2] = Plasma pharmacokinetics of liposomal MMC prodrugs in mice; format: in vivo
# Description: The plasma pharmacokinetics of liposomal MMC prodrugs and free MMC were studied in mice. The liposomal MMC prodrugs are described in Table 6 below.
# Animals were randomized into five (5) groups, each with 18 mice.
# Three animals were sacrificed at the appropriate time points post injection. Blood samples were taken for pharmacokinetic analysis at each time point (Table 8). Approximately 0.4 mls of blood was collected, via cardiac puncture under isoflurane anesthesia, into a lithium heparin tube and placed on ice. The samples were spun to obtain the plasma, which were stored in microfuge tubes at −80° C.
# [3] = system: A549 NSCLC xenografts; test: In vivo anti-tumor activity, A549 xenografts; set-up: species or system mice; conditions: single IV, 5 mg/kg MMC-eq
# [4] = in vivo; cited from earlier work
# [5] = system: HT29 colorectal adenocarcinoma cells; test: In vitro cell kill assay; format: cell-based
# Description: MCC, MMC prodrugs, and liposomal MMC prodrugs were evaluated in an in vitro cell kill assay. MMC, MMC prodrug, and liposomal MMC prodrug samples were diluted in DPBS as a starting concentration, then serially diluted 1:3 in DPBS (i.e., 70 μL:140 μL). HT29 colorectal adenocarcinoma cells were plated at 100 μL/well in 10% FBS/McCoy's 5a+Pen/Strep media at 5×10^4 cells/mL, based on approximated 24-h doubling time. The plates were incubated at 37° C. overnight to allow the cells to adhere. Next, 10 μL/well treatment dose of MMC, MMC prodrug, or liposomal MMC prodrug was added to the wells, and the plates were incubated at 37° C. […] After a 2-h incubation, the media was removed from the plate and 100 μL/well drug-free media was added before returning to the incubator. After a 24-h incubation, the media was removed from the plate and 100 μL/well drug-free media was added before returning to the incubator. After a 72-h incubation, the media was removed from all of the plates and 100 μL/well drug-free media with 10% Alamar was added to each and returned to the incubator.
# Cell viability was measured using WST-1 cell proliferation colorimetric assay or AlamarBlue. 50 mL of 10% WST/McCoy's 5a media was prepared from 5 mL of WST+45 mL of media; 50 mL of 10% Alamar Blue/McCoy's 5a media was prepared from 5 mL of Alamar Blue+45 mL of media. 10% WST/McCoy's 5a media or 10% Alamar Blue/McCoy's 5a was added, and the plates were returned to the incubator to develop, followed by subsequent reading of the fluorescence or absorbance.
# [6] = Conversion of MMC prodrug to MMC in cysteine solution (HPLC); format: physicochemical; conditions: cysteine solution pH 6.95, 37° C., after 2 h
# [7] = Table 10, single IV, 3 mg/kg MMC-eq
# [8] = Table 10, single IV, 5 mg/kg MMC-eq
# [9] = 2 h drug incubation, read-out: IC50
# [10] = 24 h drug incubation, read-out: IC50
# [11] = 72 h drug incubation, read-out: IC50
smiles,measurement,setting,value
"CO[C@@]12[C@H](COC(N)=O)C3=C(C(=O)C(C)=C(N)C3=O)N1C[C@@H]1N[C@@H]12 [MMC, Mitomycin C]",% T/C,"[1]; Table 9, 2 mpk q7d x3",72%
same,% T/C,"[1]; Table 9, 3 mpk q7d x3",13%
same,% T/C,"[1]; Table 9, 5 mpk q7d x3",5%
same,% T/C,"[1]; Table 9, 5 mpk single",77%
same,% T/C,[1]; [7],83%
same,Median Survival,[1]; [7],48 days
same,TGD (1000 mm3 Days),[1]; [7],5.2 days
same,% T/C,[1]; [8],48%
same,Median Survival,[1]; [8],54 days
same,TGD (1000 mm3 Days),[1]; [8],9.5 days
same,Half-Life,[2]; Mitomycin C in plasma after high dose of MP-3854 (25 mg/kg MMC-eq),LLD
same,Half-Life,[2]; Mitomycin C in plasma after low dose of MP-3854 (5 mg/kg MMC-eq),LLD
same,% T/C,[3],90%
same,Median Survival,[3],76 days
same,TGD (1000 mm3 Days),[3],32 days
same,half-life alpha,[4],8 min
same,half-life terminal,[4],48 min
same,IC50,"[5]; Homo sapiens, HT-29, 2 h",1830 nM
same,IC50,"[5]; Homo sapiens, HT-29, 24 h",175 nM
same,IC50,"[5]; Homo sapiens, HT-29, 48 h",109 nM
same,IC50,"[5]; Homo sapiens, HT-29, 72 h",199 nM
CO[C@@]12[C@H](COC(N)=O)C3=C(C(=O)C(C)=C(N)C3=O)N1C[C@H]1[C@@H]2N1C(=O)OCCSSCCN1CCCCC1 [MP-3827],IC50,[5]; [9],5930 nM
same,IC50,[5]; [10],2640 nM
same,IC50,"[5]; 48 h drug incubation, read-out: IC50",1690 nM
same,IC50,[5]; [11],1290 nM
"CO[C@@]12[C@H](COC(N)=O)C3=C(C(=O)C(C)=C(N)C3=O)N1C[C@H]1[C@@H]2N1C(=O)OCc1ccc(SSCCN2CCCCC2)cc1 [MP-3832, 4-((2-(piperidin-1-yl)ethyl)disulfanyl)benzyl(1aS,8S,8aR,8bS)-6-amino-8-((carbamoyloxy)methyl)-8a-methoxy-5-methyl-4,7-dioxo-1a,4,7,8,8a,8b-hexahydroazirino[2′,3′:3,4]pyrrolo[1,2-α]indole-1(2H)-carboxylate]",IC50,[5]; [9],4700 nM
same,IC50,[5]; [10],1440 nM
same,IC50,[5]; [11],1710 nM
"CO[C@@]12[C@H](COC(N)=O)C3=C(C(=O)C(C)=C(N)C3=O)N1C[C@H]1[C@@H]2N1C(=O)OCCSSCCN1CCN(C)CC1 [MP-3854, 2-((2-(4-methylpiperazin-1-yl)ethyl)disulfanyl)ethyl (1aS,8S,8aR,8bS)-6-amino-8-((carbamoyloxy)methyl)-8a-methoxy-5-methyl-4,7-dioxo-1a,4,7,8,8a,8b-hexahydroazirino[2′,3′:3,4]pyrrolo[1,2-a]indole-1(2H)-carboxylate]",conversion of prodrug,[6],complete conversion
same,MMC generated,[6]; HPLC 360 nm,92 Area %
same,IC50,"[5]; Homo sapiens, HT-29, 2 h drug incubation, read-out: IC50",41400 nM
same,IC50,"[5]; Homo sapiens, HT-29, 24 h drug incubation, read-out: IC50",4170 nM
same,IC50,"[5]; Homo sapiens, HT-29, 72 h drug incubation, read-out: IC50",3090 nM
